Measurements as given in ChEMBL document CHEMBL1201862, “PubChem BioAssay data set” (2004).
Calls of active or inactive are those of the source.

Assays:
[1] = THP-1 cell cytotoxicity, dose response, cytotoxicity control for non-replicating M. tuberculosis project (AID 489025); type: functional
[2] = Vero E6 cell cytotoxicity, dose response, cytotoxicity control for non-replicating M. tuberculosis project, secondary assay (AID 492998); type: functional, VeroE6; conditions: Vero C1008
[3] = cells; type: functional
[4] = tested on: P388/ADR; experiment: cells; type: functional; conditions: Mus musculus
[5] = tested on: SN12K1; experiment: cells; type: functional; conditions: Homo sapiens
[6] = tested on: P388; experiment: cells; type: functional; conditions: Mus musculus
[7] = target: T1, Corticotropin-releasing factor receptor 2/Corticotropin-releasing factor-binding protein (Homo sapiens, UniProt P24387+Q13324); experiment: Dose Response confirmation of uHTS hits for small molecule antagonists of the CRF-binding protein and CRF-R2 receptor complex.; type: functional; conditions: read-out: IC50_Mean
T1 sequence (Q13324 whole entry): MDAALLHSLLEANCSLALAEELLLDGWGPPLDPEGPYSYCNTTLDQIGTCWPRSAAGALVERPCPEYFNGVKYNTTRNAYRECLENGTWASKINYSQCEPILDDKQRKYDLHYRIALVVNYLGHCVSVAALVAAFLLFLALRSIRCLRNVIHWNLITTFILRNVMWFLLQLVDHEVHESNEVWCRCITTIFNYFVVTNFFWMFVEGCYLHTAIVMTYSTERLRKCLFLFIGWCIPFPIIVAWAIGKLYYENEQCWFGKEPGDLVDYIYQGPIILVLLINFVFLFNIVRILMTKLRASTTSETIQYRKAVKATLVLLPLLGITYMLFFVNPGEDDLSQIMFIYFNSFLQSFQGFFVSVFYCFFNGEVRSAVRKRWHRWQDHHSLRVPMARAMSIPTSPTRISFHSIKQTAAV
T1 sequence (P24387 whole entry): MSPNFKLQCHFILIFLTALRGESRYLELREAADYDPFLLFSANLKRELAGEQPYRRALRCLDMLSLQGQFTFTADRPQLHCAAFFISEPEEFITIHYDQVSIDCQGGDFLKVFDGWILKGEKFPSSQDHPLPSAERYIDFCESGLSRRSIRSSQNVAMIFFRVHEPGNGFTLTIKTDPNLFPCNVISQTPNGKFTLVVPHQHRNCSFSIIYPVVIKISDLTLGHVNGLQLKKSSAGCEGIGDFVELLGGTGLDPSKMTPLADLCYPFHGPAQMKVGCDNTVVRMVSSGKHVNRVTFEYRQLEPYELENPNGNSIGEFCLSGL

[8] = target: T1, Corticotropin-releasing factor receptor 2/Corticotropin-releasing factor-binding protein; experiment: activators of CRF receptor 2 with binding protein – uHTS hits, confirmation (AID 602473); type: functional; conditions: read-out: EC50_Mean
[9] = inhibitors of firefly luciferase expression or activity, dose response, H4 neuroglioma cells, luminescence (AID 1990); type: functional, cell-based
[10] = Luminescence Cell-Based Dose Response HTS to Identify Inhibitors of 5'UTR Stem-Loop Driven Prion Protein mRNA Translation in H4 Neuroglioblastoma Cells. [Related pubchem assays: 1827 (Project Summary), 1813 (Primary HTS)]; type: functional
[11] = inhibitors of SNCA 5'UTR-driven reporter translation, confirmation, H4 neuroglioma cells, luminescence (AID 1988); type: functional, cell-based
[12] = tested on: H9c2; experiment: cells; type: functional, cell-based; conditions: Rattus norvegicus, H9c2, Myocardium;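 note: confirmatory concentration-response retest of ultra-high-throughput screening hits for modulation of myocardial damage; cell death induced by hydrogen peroxide oxidative stress; compound pretreatment for 60 min then peroxide exposure for 2 h; potency is for protecting the cells against peroxide damage rather than for killing them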
[13] = target: T2, RNA-binding protein pos-1 (Caenorhabditis elegans, UniProt G5EF15); experiment: inhibitors of POS-1/mex-3 RNA binding, dose response, biochemical, fluorescence polarization (AID 1964);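 note: purified POS-1 fused to maltose binding protein made in E. coli; potency of compounds blocking POS-1 binding to fluorescent RNA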
T2 sequence (G5EF15 whole entry): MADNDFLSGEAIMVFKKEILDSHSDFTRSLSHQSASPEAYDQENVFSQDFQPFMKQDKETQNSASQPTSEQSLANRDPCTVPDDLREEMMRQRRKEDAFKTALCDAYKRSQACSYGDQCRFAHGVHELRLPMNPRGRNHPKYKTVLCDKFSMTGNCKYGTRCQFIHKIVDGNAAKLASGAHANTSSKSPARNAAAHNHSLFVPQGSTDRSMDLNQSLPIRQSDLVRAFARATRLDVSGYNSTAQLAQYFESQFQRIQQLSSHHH

[14] = target: T3, Zinc finger protein mex-5 (Caenorhabditis elegans, UniProt Q9XUB2); experiment: MEX-5/TCR-2 RNA interaction inhibitors, dose response, biochemical, C. elegans, fluorescence polarization (AID 1960)
T3 sequence (Q9XUB2 whole entry): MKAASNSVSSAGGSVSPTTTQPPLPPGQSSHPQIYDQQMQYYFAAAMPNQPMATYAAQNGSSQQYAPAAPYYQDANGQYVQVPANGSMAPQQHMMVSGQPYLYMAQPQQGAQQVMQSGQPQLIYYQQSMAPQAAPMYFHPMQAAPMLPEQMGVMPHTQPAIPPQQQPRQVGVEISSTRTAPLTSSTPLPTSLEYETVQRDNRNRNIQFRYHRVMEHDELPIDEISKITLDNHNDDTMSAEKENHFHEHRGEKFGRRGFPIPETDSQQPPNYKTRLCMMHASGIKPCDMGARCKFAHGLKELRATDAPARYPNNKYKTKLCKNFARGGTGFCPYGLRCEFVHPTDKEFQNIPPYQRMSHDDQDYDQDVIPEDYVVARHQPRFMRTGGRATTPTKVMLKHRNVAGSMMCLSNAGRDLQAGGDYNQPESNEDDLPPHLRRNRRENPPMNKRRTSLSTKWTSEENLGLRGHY

[15] = target: T4, Polyadenylate-binding protein 1 (Homo sapiens, UniProt P11940); experiment: PABP1 MLLE–PAM2 interaction inhibitors, dose response, miRNA deadenylation inhibitor project, biochemical, fluorescence polarization, Cy5-PAM2 peptide, secondary (AID 602260); type: functional; conditions: read-out: IC50_Mean
T4 sequence (P11940 whole entry): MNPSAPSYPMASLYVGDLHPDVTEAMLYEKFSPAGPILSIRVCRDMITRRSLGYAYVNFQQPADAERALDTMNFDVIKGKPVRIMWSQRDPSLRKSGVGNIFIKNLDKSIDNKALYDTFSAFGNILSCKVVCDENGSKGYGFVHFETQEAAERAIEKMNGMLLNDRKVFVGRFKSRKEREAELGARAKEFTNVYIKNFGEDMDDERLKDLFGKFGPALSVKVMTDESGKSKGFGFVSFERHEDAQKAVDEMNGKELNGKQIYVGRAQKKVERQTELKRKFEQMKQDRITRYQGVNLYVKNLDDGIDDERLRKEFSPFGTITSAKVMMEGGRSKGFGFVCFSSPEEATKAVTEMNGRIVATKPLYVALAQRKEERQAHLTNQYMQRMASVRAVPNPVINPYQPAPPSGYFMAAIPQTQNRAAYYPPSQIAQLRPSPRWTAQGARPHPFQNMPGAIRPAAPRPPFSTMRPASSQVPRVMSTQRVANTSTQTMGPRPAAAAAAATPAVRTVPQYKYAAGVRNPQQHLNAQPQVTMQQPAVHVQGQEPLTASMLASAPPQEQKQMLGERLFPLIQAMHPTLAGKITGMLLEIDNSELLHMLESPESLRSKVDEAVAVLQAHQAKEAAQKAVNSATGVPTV

[16] = target: T4, Polyadenylate-binding protein 1; experiment: PABP1 MLLE–PAM2 binding inhibitor potency, dose response, biochemical, fluorescence polarization, FITC-PAM2 peptide (AID 602259); type: functional; conditions: read-out: IC50_Mean
[17] = target: T5, Microphthalmia-associated transcription factor (Homo sapiens, UniProt O75030); experiment: TRPM1 promoter luciferase signal decrease, dose response, MITF inhibitor project, cell-based, SK-MEL-5, cherry-picked, set 3 (AID 493073); type: functional
T5 sequence (O75030 whole entry): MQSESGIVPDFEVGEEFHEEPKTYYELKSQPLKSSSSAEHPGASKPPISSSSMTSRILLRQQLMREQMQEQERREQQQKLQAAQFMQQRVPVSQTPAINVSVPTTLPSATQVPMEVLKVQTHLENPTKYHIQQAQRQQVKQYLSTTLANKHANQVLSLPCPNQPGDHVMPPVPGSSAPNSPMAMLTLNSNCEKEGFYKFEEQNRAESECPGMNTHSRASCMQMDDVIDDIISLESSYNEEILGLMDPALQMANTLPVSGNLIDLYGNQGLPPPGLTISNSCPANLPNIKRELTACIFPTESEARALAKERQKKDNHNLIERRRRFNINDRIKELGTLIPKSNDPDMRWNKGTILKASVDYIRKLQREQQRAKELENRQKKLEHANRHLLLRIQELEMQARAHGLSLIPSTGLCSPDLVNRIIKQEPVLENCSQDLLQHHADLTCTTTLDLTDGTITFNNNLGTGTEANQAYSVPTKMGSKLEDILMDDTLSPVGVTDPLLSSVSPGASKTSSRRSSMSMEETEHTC

[18] = target: Genome polyprotein (dengue virus type 2, UniProt P29990); experiment: Dengue-2 NS5 methyltransferase inhibitors, primary screen, biochemical, confirmation dose response (AID 588689); type: functional
Chain of Genome polyprotein (P29990 2492-3391 limits assumed): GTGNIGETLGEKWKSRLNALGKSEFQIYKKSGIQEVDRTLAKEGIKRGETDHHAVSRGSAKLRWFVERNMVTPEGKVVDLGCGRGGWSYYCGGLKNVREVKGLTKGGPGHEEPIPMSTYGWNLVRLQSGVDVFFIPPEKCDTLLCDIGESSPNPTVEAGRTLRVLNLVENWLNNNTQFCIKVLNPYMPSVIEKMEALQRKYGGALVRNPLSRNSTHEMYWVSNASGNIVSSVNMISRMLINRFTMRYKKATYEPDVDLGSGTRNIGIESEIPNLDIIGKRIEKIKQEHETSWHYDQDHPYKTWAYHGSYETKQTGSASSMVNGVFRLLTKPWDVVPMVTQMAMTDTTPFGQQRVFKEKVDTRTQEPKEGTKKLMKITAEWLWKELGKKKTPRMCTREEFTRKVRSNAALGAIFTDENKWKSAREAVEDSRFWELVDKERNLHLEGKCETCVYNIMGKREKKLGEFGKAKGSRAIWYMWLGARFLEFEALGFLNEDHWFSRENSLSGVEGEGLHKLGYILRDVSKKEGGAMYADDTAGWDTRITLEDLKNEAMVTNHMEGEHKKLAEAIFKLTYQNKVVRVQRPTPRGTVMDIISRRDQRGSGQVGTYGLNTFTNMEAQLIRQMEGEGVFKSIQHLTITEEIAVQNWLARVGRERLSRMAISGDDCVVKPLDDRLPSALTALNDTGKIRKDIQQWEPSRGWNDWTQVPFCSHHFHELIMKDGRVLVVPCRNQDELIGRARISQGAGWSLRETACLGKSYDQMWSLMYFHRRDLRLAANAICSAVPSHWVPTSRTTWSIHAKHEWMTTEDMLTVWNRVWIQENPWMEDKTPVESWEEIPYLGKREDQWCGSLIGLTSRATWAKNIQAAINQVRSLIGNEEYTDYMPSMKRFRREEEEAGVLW

[19] = target: T6, Carboxy-terminal domain RNA polymerase II polypeptide A small phosphatase 1 (Homo sapiens, UniProt Q9GZU7); experiment: inhibitors of CTDSP1, concentration-response testing, biochemical assay, absorbance-based, actives from ultra-high-throughput screening (AID 540297); type: functional
T6 sequence (Q9GZU7 whole entry): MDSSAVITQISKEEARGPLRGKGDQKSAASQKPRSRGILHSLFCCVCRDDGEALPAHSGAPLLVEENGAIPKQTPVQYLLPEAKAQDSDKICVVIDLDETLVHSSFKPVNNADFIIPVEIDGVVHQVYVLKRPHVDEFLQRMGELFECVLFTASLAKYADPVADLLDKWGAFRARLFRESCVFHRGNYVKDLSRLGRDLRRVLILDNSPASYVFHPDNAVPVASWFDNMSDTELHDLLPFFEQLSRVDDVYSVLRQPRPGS

[20] = tested on: Streptococcus sp. 'group A'; experiment: growth inhibition of control SK(-) GAS strain, dose response, counter-screen for streptokinase expression inhibitor project, luminescence, kanamycin, BacTiterGlo, confirmation (AID 1900); type: functional, organism-based
[21] = target: T7, Streptokinase A (Streptococcus pyogenes serotype M1, UniProt P10520); experiment: S. pyogenes streptokinase expression inhibitors, potency, dose response, plasminogen activation absorbance, OD405 (AID 1914); type: functional, Streptococcus pyogenes M1 GAS;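 note: secreted streptokinase activity via plasminogen activation per viability signal from cell pellet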
T7 sequence (P10520 whole entry): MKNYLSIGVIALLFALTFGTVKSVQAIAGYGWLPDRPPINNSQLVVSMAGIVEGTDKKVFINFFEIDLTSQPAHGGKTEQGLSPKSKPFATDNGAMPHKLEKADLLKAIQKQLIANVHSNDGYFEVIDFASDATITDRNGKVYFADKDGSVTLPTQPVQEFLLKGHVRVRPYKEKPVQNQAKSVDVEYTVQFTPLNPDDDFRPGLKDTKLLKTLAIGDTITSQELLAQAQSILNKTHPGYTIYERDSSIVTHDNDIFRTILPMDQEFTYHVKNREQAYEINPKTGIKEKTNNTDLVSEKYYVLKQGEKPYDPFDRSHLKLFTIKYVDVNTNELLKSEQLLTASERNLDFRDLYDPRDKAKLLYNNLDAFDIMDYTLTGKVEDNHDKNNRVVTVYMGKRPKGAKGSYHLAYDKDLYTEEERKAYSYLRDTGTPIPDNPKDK

[22] = tested on: Streptococcus; experiment: Group A Streptococcus viability loss, dose response, counter-screen for streptokinase expression inhibitor project, luminescence, BacTiterGlo (AID 1915); type: functional, organism-based;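 note: potency for reduction of bacterial viability or growth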

Row | Compound | GI50 [4] | GI50 [5] | GI50 [6] | IC50 [7] | EC50 [8] | also measured
1 | Cc1cccc(-c2nnc3sc(-c4ccccc4C)nn23)c1 |  |  |  |  |  | CC50 [1]: 39 µM (active); CC50 [2]: > 20 µM (active); IC50 [3]: 34.6 µM (active)
2 | CNC(=O)C(C)C1CCC2(C)C=CC(=O)C(C)=C2C1O (stereo not given) | > 100 µM (inactive) | > 100 µM (inactive) | > 100 µM (inactive) |  |  | 
3 | C=CCN(CC(=O)NCc1ccccc1)C(=O)c1csnn1 |  |  |  | > 47.1 µM (inactive) | > 53 µM (inactive) | 
4 | Nc1cc(O)c2cc(/N=N/c3ccc(/N=N/c4ccc(/N=N/c5ccc6cc(S(=O)(=O)O)cc(S(=O)(=O)O)c6c5)c5ccccc45)c4cc(S(=O)(=O)O)ccc34)c(S(=O)(=O)O)cc2c1 |  | > 100 µM (inactive) | > 100 µM (inactive) |  |  | 
5 | COc1cc(C2c3cc4c(cc3[C@@H](Oc3ccc(F)cc3)C3COC(=O)[C@H]23)OCO4)cc(OC)c1O (stereo not given in full) | 0.354 µM (active) | 0.31 µM (active) | 0.327 µM (active) |  |  | 
6 | O=C(CC1=NCCN1)c1ccccc1 | 705 µM (inactive) | > 750 µM (inactive) | > 750 µM (inactive) |  |  | 
7 | COc1cc(OC)cc(C(=O)NNC(=O)c2ccccn2)c1 |  |  |  |  |  | EC50 [9]: 11.6 µM (active); EC50 [10]: 11.2 µM (active); EC50 [11]: > 120 µM (not active); CC50 [1]: 10.6 µM (active); CC50 [2]: 12.6 µM (active); IC50 [3]: 9.73 µM (active); IC50 [12]: > 79 µM (inactive)
8 | CC(C)(C)OC(=O)NC(Cc1ccccc1)C(=O)N1CCC(C(=O)NCC(=O)Nc2ccc(F)cc2)CC1 (stereo not given) |  |  |  | > 47.1 µM (inactive) | > 53 µM (inactive) | EC50 [13]: 7.08 µM (active); EC50 [14]: 2.04 µM (inconclusive); IC50 [15]: > 66 µM (inactive); IC50 [16]: 28.7 µM (inactive)
9 | COc1ccc(CCn2c(=O)c3cccnc3n(Cc3cccc([N+](=O)[O-])c3)c2=O)cc1OC |  |  |  | > 47.1 µM (inactive) | > 53 µM (inactive) | 
10 | COc1ccccc1N1CCN(C(c2ccc(Cl)cc2)c2nnnn2C(C)(C)C)CC1 (stereo not given) |  |  |  | > 47.1 µM (inactive) | > 53 µM (inactive) | 
11 | COc1ccc(CCn2c(=S)[nH]c3cc(C(=O)NCc4ccco4)ccc3c2=O)cc1OC |  |  |  |  |  | AC50 [17]: 17.7 µM (active)
12 | COc1cc(/C=C/C(=O)O)ccc1C(=O)OCc1ccccc1 | > 100 µM (inactive) | > 100 µM (inactive) | > 100 µM (inactive) |  |  | 
13 | Cc1ccc(C)c(-c2nnc(NC(=O)c3ccc([N+](=O)[O-])o3)o2)c1 |  |  |  |  |  | CC50 [1]: 11.7 µM (active); CC50 [2]: 11.6 µM (active); IC50 [3]: < 0.1 µM (active)
14 | O=C1Nn2c(nc3c(c2=O)CCCC3)/C1=N/Nc1cccc(Cl)c1 |  |  |  | 19.2 µM (active) | > 53 µM (inactive) | IC50 [18]: 62.4 µM (active); IC50 [19]: 5.32 µM (active)
15 | CN(C)CCNC(=O)c1cccc2cc3cc(O)ccc3nc12 | 0.288 µM (active) | 0.339 µM (active) | 0.0748 µM (active) |  |  | 
16 | O=C(NCc1cccc(Cl)c1)C1CCC(=O)N(CC2CCCCC2)C1 (stereo not given) |  |  |  | > 47.1 µM (inactive) | > 53 µM (inactive) | 
17 | CNC(=O)OCc1nc(SC(C)C)n(C)c1COC(=O)NC | 83.6 µM (inactive) | > 100 µM (inactive) | 46.9 µM (inactive) |  |  | 
18 | O=C(NNC1=Nc2ccccc2SC1)c1ccc(F)cc1 |  |  |  |  |  | EC50 [20]: 3.72 µM (active); EC50 [21]: > 150 µM (not active); EC50 [22]: 15.6 µM (active); CC50 [1]: > 40 µM (active); CC50 [2]: > 20 µM (active); IC50 [3]: 23.5 µM (active)
19 | COc1cc2c(cc1NC(=O)COC(=O)CNC(=O)c1ccccc1)oc1ccccc12 |  |  |  | > 47.1 µM (inactive) | > 53 µM (inactive) | 
